Assay results published in US4889634A, “Dialysate solution containing hydroxypropyl-beta-cyclodextrin and method of using same” (priority 1988, dated 1989).

Tested on: rats [Crl:CD(SD) BR strain]
Assay: 14-day intravenous toxicity study in rats
Type: in vivo, rat
Conditions: for Number of deaths: 200 mg/kg i.v. every second day
Description: As part of the toxicological evaluation of HPBCD, control groups of animals were dosed with HPBCD alone.
Two groups (5/sex/group) of rats [Crl:CD(SD) BR strain] were used for this study. Control rats were given 200 mg of salt per kilogram of body weight intravenously administered in a saline control solution comprising 20% salt by weight in water. The saline control was administered every second day for 14 days (i.e. seven injections). The treated rats were given 200 mg of HPBCD per kilogram of body weight intravenously administered (200 mg/kg i.v. HPBCD) via a HPBCD solution containing 20% HPBCD by weight in water on the same injection schedule. […] At the end of the study the animals were necropsied, gross pathology was observed, histopathological samples were prepared and blood was drawn for clinical laboratory measurements.

[1] = female rats, 200 mg/kg i.v., 14 days
[2] = male rats, 200 mg/kg i.v., 14 days

Which results are given for hydroxypropyl-beta-cyclodextrin [HPBCD]?
Albumin/Globulin (Ratio) [1]: 0.9 ± 0.06; Triglycerides [1]: 35.0 ± 12.00 mg/dL; White blood cells [1]: 7.4 ± 2.56 × 10^3 /mm^3; Number of observations (antemortem) (female, 200 mg/kg i.v.): 0/5; Number of deaths (female, 14 days): 0/5; Body weight gain (female, week 1, 200 mg/kg i.v.): 16.0 ± 5.00 Grams; Food intake (female, week 1, 200 mg/kg i.v.): 107.9 ± 10.59 Grams; Body weight gain (female, week 2, 200 mg/kg i.v.): 18.0 ± 4.21 Grams; Food intake (female, week 2, 200 mg/kg i.v.): 112.1 ± 12.47 Grams; Adrenals weight to total body weight ratio (females): 0.0328 Weight Percent of Total Body W; Kidney weight to total body weight ratio (females): 0.9937 Weight Percent of Total Body W; Body weight gains vs saline control (in words): No difference; Food intake vs saline control (in words): No difference; Gross pathology (in words): No changes in gross pathology attributable to HPBCD treatment were observed; Abumin/Globulin (Ratio) [2]: 0.9 ± 0.08; Alanine amino transferase [2]: 24.0 ± 6.70 IU/L; Albumin [2]: 3.0 ± 0.08 G/dL; Alkaline phosphatase [2]: 137.0 ± 26.20 IU/L; Aspartate amino transferase [2]: 124.0 ± 37.36 IU/L; Basophils [2]: 0.00 ± 0.00 × 10^3 /mm^3; Blood urea nitrogen [2]: 11.2 ± 0.87 mg/dL; Calcium [2]: 9.8 ± 0.31 mg/dL; Chlorine [2]: 106.0 ± 1.80 mmol/L; Cholesterol [2]: 33.0 ± 7.10 mg/dL; Creatinine [2]: 0.8 ± 0.04 mg/dL; Eosinophils [2]: 0.07 ± 0.05 × 10^3 /mm^3; Globulin [2]: 3.3 ± 0.20 G/dL; Glucose (blood) [2]: 94.1 ± 7.43 mg/dL; Hematocrit [2]: 48.6 ± 1.74%; Hemoglobin [2]: 14.6 ± 0.51 G/DL; Ionic phosphate [2]: 9.7 ± 0.34 mg/dL; Lymphocytes [2]: 7.13 ± 1.08 × 10^3 /mm^3; Mean corpuscle [2]: 64.0 ± 2.20 fL; Mean corpuscle hemoglobin [2]: 19.3 ± 0.60 pg; Mean corpuscle hemoglobin concentrative [2]: 30.0 ± 0.35%; Monocytes [2]: 0.08 ± 0.01 × 10^3 /mm^3; Normal blood cells [2]: 0 ± 0.0 /100 white blood cells; Platelet count [2]: 1020.0 ± 79.5 × 10^3 /mm^3; Potassium [2]: 4.7 ± 0.15 mmol/L; Red blood cell [2]: 7.55 ± 0.17 × 10^6 /mm^3; Segmented neutrophils [2]: 0.61 ± 0.44 × 10^3 /mm^3; Sodium [2]: 142 ± 1.5 mM; Total bilirubin [2]: 0.2 ± 0.04 mg/dL; Total proteins [2]: 6.3 ± 0.18 G/dL; Triglycerides [2]: 57.0 ± 17.10 mg/dL; White blood cells [2]: 7.9 ± 1.18 × 10^3 /mm^3; Number of deaths (male, 14 days): 0/5; Kidney weight to total body weight ratio (males): 0.9022 Weight Percent of Total Body W; Adrenals weight to total body weight ratio (rat, in vivo): 0.0212 Weight Percent of Total Body W; Clinical laboratory values vs controls (rat, in vivo): no observed clinically significant differences; Epididymes weight to total body weight ratio (rat, in vivo): 0.2635 Weight Percent of Total Body W; Organ to body ratios between groups (rat, in vivo): not different between the groups; Ovaries weight to total body weight ratio (rat, in vivo): 0.0574 Weight Percent of Total Body W; Prostate weight to total body weight ratio (rat, in vivo): 0.2091 Weight Percent of Total Body W; Testes weight to total body weight ratio (rat, in vivo): 1.0209 Weight Percent of Total Body W; Uterus weight to total body weight ratio (rat, in vivo): 0.3278 Weight Percent of Total Body W; Alanine amino transferase (rat, in vivo, iv, 200 mg/kg): 21.0 ± 2.30 IU/L; Albumin (rat, in vivo, iv, 200 mg/kg): 3.1 ± 0.08 G/dL; Alkaline phosphatase (rat, in vivo, iv, 200 mg/kg): 109.0 ± 16.20 IU/L; Aspartate amino transferase (rat, in vivo, iv, 200 mg/kg): 102.0 ± 162.00 IU/L; Basophils (rat, in vivo, iv, 200 mg/kg): 0.00 ± 0.00 × 10^3 /mm^3; Blood urea nitrogen (rat, in vivo, iv, 200 mg/kg): 13.2 ± 2.52 mg/dL; Calcium (rat, in vivo, iv, 200 mg/kg): 10.1 ± 0.82 mg/dL; Chlorine (rat, in vivo, iv, 200 mg/kg): 107.0 ± 2.60; Cholesterol (rat, in vivo, iv, 200 mg/kg): 52.0 ± 18.60 mg/dL; Creatinine (rat, in vivo, iv, 200 mg/kg): 0.8 ± 0.11 mg/dL; Eosinophils (rat, in vivo, iv, 200 mg/kg): 0.06 ± 0.04 × 10^3 /mm^3; Globulin (rat, in vivo, iv, 200 mg/kg): 3.4 ± 0.26 G/dL; Glucose (blood) (rat, in vivo, iv, 200 mg/kg): 100.0 ± 14.07 mg/dL; Hematocrit (rat, in vivo, iv, 200 mg/kg): 47.2 ± 5.59%
